Data on five compounds can be found in patent publication US9446267B2, “Products comprising a flavoring agent composition” (SYMRISE AG, priority 2009, dated 2016).

The conditions of data set [1]: L-menthol given a strength of 100; cited from earlier work.
Data set [2] in a line: Sensorial assessment of intensity and duration of the cooling sensation of freshness of toothpaste. Format: in vivo. Particulars: for intensity of coolness perceived: scale of 0 to 10, toothpaste with 1.2 wt. % flavoring composition of Example 1.2 containing 0.5 wt. % cooling agent; for duration of the cooling sensation of freshness: teeth cleaning compound / toothpaste, in words. The procedure:
The proportion of menthane carboxylic acid-N-(4-methoxyphenyl)-amide (WS-12) in the 1st preparation of Example 1.2 was replaced by menthane-3-carboxylic acid-N-ethyl amide (WS-3).
The flavoring agent composition obtained was likewise incorporated into a standard toothpaste mass with a silicic acid base in a concentration of 1.2 wt. %, in relation to the overall weight of the resultant toothpaste.
(§1) The toothpaste prepared in this way was tested by a panel of sensorially trained experts under usage conditions and compared with the toothpaste containing menthane carboxylic acid-N-(4-methoxyphenyl)-amide (WS-12) according to the 1st formulation of Example 1.2 in respect of the bitter perception and the duration of the cooling sensation of freshness.
The abscissa of FIG. 1 gives the time in minutes elapsing since cleaning of the teeth with the respective toothpaste.
The intensity of coolness perceived was rated on a scale of 0 to 10, with a value of “0” corresponding to the lowest or no intensity of coolness perceived and a value of “[…]” corresponding to the highest intensity of coolness perceived.

Data set [3] in a line: Sensorial assessment of the bitter-sharp note of menthol in toothpaste by a panel of trained experts. Particulars: for bitter-sharp note of the menthol / bitter perception: flavoring agent composition at 1.2 wt. % in toothpaste, usage conditions, expert panel. It counts as in vivo. As to the method:
The flavoring agent compositions obtained in this way were in each case incorporated into a respective standard toothpaste mass with a silicic acid basis in a concentration of 1.2 wt. %, in relation to the overall weight of the resulting toothpaste. The toothpastes were tested by a panel of sensorially trained experts under usage conditions. […] Without the use of anethole in the 2nd formulation the bitter-sharp note clearly emerged and the taste result was perceived overall to be unacceptable.
The flavoring agent compositions obtained in this way were in each case incorporated into a respective standard toothpaste mass with a silicic acid basis in a concentration of 1.2 wt. %, in relation to the overall weight of the resulting toothpaste. The toothpastes were tested by a panel of sensorially trained experts under usage conditions.
as §1
The flavoring agent composition obtained in this way was incorporated into a standard toothpaste mass with a silicic acid base in a concentration of 1.2 wt. %, in relation to the overall weight of the resulting toothpaste. The toothpaste was tested by a panel of sensorially trained experts under usage conditions. […] Since through the use of menthane carboxylic acid-N-(4-methoxyphenyl)-amide (WS-12) in combination with the further flavoring agents with a log-Kow value in the range of 1.5-5 (I-menthyl acetate, 1,8-cineole, cinnamaldehyde, and abovementioned corresponding proportions of peppermint oils) a strong reduction in bitterness (of the menthol) was achieved, it was advantageously possible to dispense with the use of anethole to reduce the bitterness. Apart from a pleasant, distinctly fresh, long-lasting taste impression, the toothpaste was also able to impart a distinct, sweet cinnamon note as a result of the proportion of cinnamaldehyde.
The flavoring agent compositions according to Example 4.1 (for a teeth cleaning compound for comparative purposes) and Example 4.2 (for a teeth cleaning compound according to the invention) were in each case incorporated with a concentration of 1.2 wt. %, in relation to the overall weight of the resulting toothpaste into a respective toothpaste mass, containing a proportion of 65 wt. % sodium bicarbonate. […]

The target of the next data set is cold receptor TRPM8 (Homo sapiens, UniProt Q7Z2W7). Particulars: cited from earlier work.
For data set [4] the following is noted: cited from earlier work.
The next data set in a line: Solubility of WS-12. It counts as physicochemical. Particulars: in words. An excerpt: In order to bring about the masking of the menthol to a sufficient extent, WS-12 must be dissolved in the flavoring agent composition of the teeth cleaning compound in a sufficient quantity. Our own preliminary investigations have shown that in certain conventional flavoring agent compositions the solubility of the WS-12 is so low that only an insufficient masking (reduction or decrease) in the negative taste impressions of the menthol can be achieved.

The conditions of data set [5]: on the philtrum fold (upper lip); cited from earlier work.

Each structure is given as a SMILES string. Read-outs that look alike come from different tables or passages of the source.

cold receptor TRPM8, sequence (Q7Z2W7 whole entry): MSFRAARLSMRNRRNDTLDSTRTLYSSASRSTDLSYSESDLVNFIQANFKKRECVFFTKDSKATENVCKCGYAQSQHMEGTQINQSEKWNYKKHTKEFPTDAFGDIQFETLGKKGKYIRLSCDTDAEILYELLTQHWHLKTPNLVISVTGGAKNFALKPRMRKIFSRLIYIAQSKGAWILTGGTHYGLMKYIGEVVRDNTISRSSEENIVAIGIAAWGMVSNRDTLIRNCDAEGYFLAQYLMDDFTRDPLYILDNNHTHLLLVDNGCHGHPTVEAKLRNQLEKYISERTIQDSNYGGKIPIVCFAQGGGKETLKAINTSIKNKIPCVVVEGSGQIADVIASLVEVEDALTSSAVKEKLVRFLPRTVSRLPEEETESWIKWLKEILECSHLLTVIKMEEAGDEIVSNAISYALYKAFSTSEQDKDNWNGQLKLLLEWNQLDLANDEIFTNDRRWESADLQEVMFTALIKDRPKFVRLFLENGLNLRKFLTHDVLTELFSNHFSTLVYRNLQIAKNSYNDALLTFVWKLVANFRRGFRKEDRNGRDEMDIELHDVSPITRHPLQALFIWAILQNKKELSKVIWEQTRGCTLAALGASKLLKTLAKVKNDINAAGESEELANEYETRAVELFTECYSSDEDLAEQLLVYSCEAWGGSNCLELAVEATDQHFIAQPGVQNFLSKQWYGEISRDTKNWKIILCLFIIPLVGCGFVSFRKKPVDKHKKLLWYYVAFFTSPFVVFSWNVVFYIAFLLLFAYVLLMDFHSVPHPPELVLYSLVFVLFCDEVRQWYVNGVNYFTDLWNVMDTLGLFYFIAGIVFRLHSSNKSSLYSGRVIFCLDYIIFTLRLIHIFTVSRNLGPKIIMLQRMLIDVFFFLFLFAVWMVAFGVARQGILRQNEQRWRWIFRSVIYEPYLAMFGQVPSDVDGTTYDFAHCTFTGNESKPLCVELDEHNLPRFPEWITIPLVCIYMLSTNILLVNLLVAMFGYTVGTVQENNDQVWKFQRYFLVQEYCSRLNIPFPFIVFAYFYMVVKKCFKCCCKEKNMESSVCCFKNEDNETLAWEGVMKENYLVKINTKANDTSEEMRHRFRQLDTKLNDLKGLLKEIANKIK

In the case of `CCOC(=O)CNC(=O)C1CC(C)CCC1C(C)C` [WS-5, N^α-(L-menthane carbonyl)-glycine ethyl ester], the “relative cooling strength compared with L-menthol” value (from here on “relative cooling strength”) in data set [1] was 400.
For the compound `CC(C)[C@@H]1CC[C@@H](C)C[C@H]1O` [L-menthol], the “relative cooling strength” value in data set [1] is listed as 100.
For the compound `CCNC(=O)C1CC(C)CCC1C(C)C` [WS-3, L-menthane carboxylic acid-N-ethyl amide], the “intensity of coolness perceived” value in data set [2] (after 35 minutes) is listed as 0. Besides, the “duration of the cooling sensation of freshness” value in data set [2] is listed as “only for a relatively short time”. In data set [1], the “relative cooling strength” value is listed as 150. The “reduction or masking of the bitterness or sharpness caused by menthol” value in data set [3] (addition to a conventional teeth cleaning compound containing menthol) was “did not lead to a significant reduction”. Also, in data set [3], the “bitter-sharp note of the menthol / bitter perception” value was “hardly reduced”.
As for `COc1ccc(NC(=O)C2CC(C)CCC2C(C)C)cc1` (stereo not shown) [WS-12, menthane carboxylic acid-N-(4-methoxyphenyl)-amide], the results for the “effect on the TRPM8 cold receptor” value on cold receptor TRPM8 and on cold receptor TRPM8 (listed as menthane carboxylic acid-N-(4-methoxyphenyl)-amide) were “stronger effect than WS-5” and “one of the strongest cooling substances”, respectively. In data set [4] (remaining on the upper lip), the “duration of cooling effect on the upper lip” value is given as “up to half an hour”. The “cooling effect compared with WS-5” value in data set [4] (upper lip) was “lower than WS-5”. The results for the “intensity of coolness perceived” value in data set [2] (after 35 minutes) and in data set [2] (after 60 minutes) were 3 and roughly 1.5, respectively. Besides, the “duration of the cooling sensation of freshness” value in data set [2] is recorded as “comparatively long-lasting”. The solubility result in the data set “Solubility of WS-12” is “relatively not readily soluble”. For the same compound, the “relative cooling strength” value in data set [1] is given as 150. In addition, in data set [3], the “bitter-sharp note of the menthol / bitter perception” value was “significantly reduced”. In addition, the cooling duration entry in data set [5] was “under one hour”.
Regarding `CC=Cc1ccc(OC)cc1` [anethole], in data set [3], the “bitter-sharp note of the menthol / bitter perception” value was “neutralized”.
